Results reported in US11524003B2, “Alpha-amino esters of hydroxypropylthiazolidine carboxamide derivative and salt form, crystal polymorph thereof” (ObsEva S.A., priority 2016, dated 2022).
Entries after “also recorded” stand apart in the source; their conditions may differ. Structures can show the parent of a compound that is named as a salt. Where two headings read alike, the source gives them in different places. Where a SMILES comes first, the peptide text is derived from it. Bridges are numbered along the chain shown (N, C = ends). [ ]: non-standard residue; d: D form. Orn = NCCC[C@H](N)C(=O)O; Mpa = O=C(O)CCS

Assays:
[1] = tested on: RU486-induced parturition; assay: RU486-induced preterm parturition in CD-1 mice
Experimental: (§1) Tocolytic effects were assessed by measuring the time from induction to delivery of the first pup for each mouse in the treatment and control cohorts, the time from time from induction to completion of delivery among all mice in each cohort, and viability of offspring among mice in each cohort. The inducers of preterm parturition used in this study were RU486 (also referred to as mifepristone), a steroidal antiprogestin that promotes cervical dilatation and provokes enhanced uterine contractility and sensitivity to prostaglandins, and lipopolysaccharide (LPS), a mediator of inflammation.
(§2) To induce labor at an early gestational age, a single dose of RU486 was administered to each mouse subcutaneously at 2.5 mg/kg (t=0). Mice treated with LPS received a single intraperitoneal injection of LPS at 2 mg/kg (t=0). Atosiban was administered to CD-1 mice by subcutaneous injection at 300 mg/kg at two distinct sites. These injections were performed at 5 hours (t=5) and 29 hours (t=29) following treatment with the inducing agent RU486 or LPS. […] Compound III was administered to CD-1 mice orally at either 10 mg/kg, 30 mg/kg, or 100 mg/kg at 5 hours (t=5), 19 hours (t=19), 29 hours (t=29), and 43 hours (t=43) following treatment with the inducing agent RU486 or LPS. […] The viability of pups delivered in each cohort was assessed by galenic hydrostatic pulmonary docimasy.

[2] = tested on: LPS-induced parturition; assay type: in vivo; conditions: LPS-treated mice
Experimental: as §1, §2

[3] = Moisture sorption/desorption and relative humidity stability of compound I salts; assay type: physicochemical; conditions: for Hygroscopicity: moisture balance data, hydrochloride
Experimental: Moisture sorption/desorption (MB) data were collected on a VTI SGA-100 Vapor Sorption Analyzer. Sorption and desorption data were collected over a range of 5% to 95% relative humidity (RH) at 10% RH intervals under a nitrogen purge. Samples were not dried prior to analysis. Equilibrium criteria used for analysis were less than 0.0100% weight change in 5 minutes, with a maximum equilibration time of 3 hours if the weight criterion was not met. Data were not corrected for the initial moisture content of the samples. NaCl and PVP were used as calibration standards.

[4] = Aqueous solubility of compound I salts (FIG. 8); assay type: physicochemical; conditions: water
[5] = nifedipine 5 mg/kg oral, compound III 10 mg/kg oral, alone or combined

## CC(C)[C@H](N)C(=O)OCC[C@H](NC(=O)[C@@H]1SCCN1S(=O)(=O)c1ccc(-c2ccccc2)cc1)c1ccc(F)cc1 [Compound III, (3S)-3-({[(2S)-3-(biphenyl-4-ylsulfonyl)-1,3-thiazolidin-2-yl]carbonyl}-amino)-3-(4-fluorophenyl)propyl L-valinate hydrochloride]
[1]; RU486-treated mice
  Effect on time to delivery: increase in time to delivery compared to vehicle
[1]; RU486-treated mice, nifedipine 5 mg/kg oral, compound III 100 mg/kg oral, alone or combined
  Time to delivery: 23.70 ± 0.60 h
[2]
  Effect on fractional viability of offspring: dose-dependent increase in the fractional viability of offspring
[2]; compound III 100 mg/kg oral
  Fractional viability of offspring: 69.41%±15.76%
[2]; [5]
  Fractional viability of offspring: 57.90%±14.89%
  Time to delivery: 23.98 ± 0.66 h
[3]
  Stability at elevated relative humidity: extended stability at elevated relative humidity
  Weight loss upon desorption: approximately 0.7%
  Hygroscopicity: low hygroscopicity
[3]; 2 days, approximately 95% RH
  Deliquescence at approximately 95% RH: did not deliquesce
[3]; from 5 to 95% relative humidity
  Weight gain on sorption: Approximately 0.9%
[3]; listed as chloride salt
  Hygroscopicity: non-hygroscopic
[3]; listed as hydrochloride salt
  Hygroscopicity: low hygroscopicity; also recorded: non-hygroscopic
[4]
  solubility: < 1000 µg/mL

## CC#C[C@]1(O)CC[C@H]2[C@@H]3CCC4=CC(=O)CCC4=C3[C@@H](c3ccc(N(C)C)cc3)C[C@@]21C [RU486, mifepristone]
[1]; RU486 2.5 mg/kg s.c. at gestational age 17 days
  Mean delivery time following induction: 21 ± 1.00 h
[1]; female, CD-1, mouse, in vivo, 2.5 mg/kg
  Mice excluded due to death or sacrifice during the study: 3%
[1]; inducer alone
  Pups delivered alive: 96%

## CCOc1ccc(C[C@H]2NC(=O)CCSSC[C@@H](C(=O)N3CCC[C@H]3C(=O)N[C@@H](CCCN)C(=O)NCC(N)=O)NC(=O)[C@H](CC(N)=O)NC(=O)[C@H]([C@@H](C)O)NC(=O)[C@H]([C@@H](C)CC)NC2=O)cc1 [atosiban, reference compound] ([Mpa][dY](Et)ITNCP[Orn]G-NH2; disulfide 1-6)
[2]
  Effect on time to delivery: increase in time to delivery
[2]; atosiban 300 mg/kg s.c., compound III 100 mg/kg oral, alone or combined
  Time to delivery: 28.41 ± 2.99 h

## COC(=O)C1=C(C)NC(C)=C(C(=O)OC)C1c1ccccc1[N+](=O)[O-] [nifedipine, reference compound]
[2]; [5]
  Fractional viability of offspring: 90.39%±5.34%
